# Measured values: paper doi:10.1101/2023.10.03.560722, “Drug Discovery in Low Data Regimes: Leveraging a Computational Pipeline for the Discovery of Novel SARS-CoV-2 Nsp14-MTase Inhibitors” (bioRxiv, 2024)
# Read-outs that look alike come from different tables or passages of the source. Where a SMILES comes first, the peptide text is derived from it. [ ]: non-standard residue; d: D form. The star is where a group is joined. Ac5c = NC1(C(=O)O)CCCC1; Cbz = O=C(OCc1ccccc1)*
# Columns and labels:
# [1] = target: T1, SARS-CoV-2 nsp14 MTase (Severe acute respiratory syndrome coronavirus 2, UniProt P0DTD1); experiment: biochemical; assay type: biochemical; conditions: for IC50: nsp14 MTase activity, high-throughput screening follow-up
# [2] = target: nsp14 (Severe acute respiratory syndrome coronavirus 2, UniProt P0DTD1); experiment: surface plasmon resonance (SPR) binding to immobilized full-length biotinylated nsp14; design: species or system SARS-CoV-2
# Experimental: For Surface Plasmon Resonance (SPR), the full-length biotinylated nsp14 was immobilized on the flow cell of a SA sensor chip in 1x HBS-EP buffer, achieving a response of 8000 RU. The assay was performed using the same buffer but with 2% DMSO added. Single-cycle kinetics were employed with a contact time of 60 seconds and a dissociation time of 120 seconds, at a flow rate of 75 µL/min. NSC620333 was tested at a concentration of 10 µM as the highest concentration, and a dilution factor of 0.25 was used to yield five different concentrations.
# [3] = tested on: SARS-CoV-2; assay type: cell-based; conditions: Calu-3 cells, lung epithelial SARS-CoV-2 infection model
# [4] = target: T1, SARS-CoV-2 nsp14 MTase; conditions: inhibition of nsp14 methyltransferase activity; cited from earlier work
# [5] = compound 100µM, replicate experiment 1
# [6] = compound 100µM, replicate experiment 2
SMILES,"nsp14 Inhibition % (100µM) Exp 1 [1, 5] [%]","nsp14 Inhibition % (100µM) Exp 2 [1, 6] [%]",further results
O=C(O)c1ccc(C(=O)c2ccc(C(=O)c3ccc(C(=O)O)cc3)cc2)cc1 [NSC2269],64,60,IC50 ([1]; read-out: IC50): 27 µM
O=C(CN1CCOCC1)C(O)C(O)C(O)CO (stereo not shown) [NSC4348],73,61,IC50 ([1]; read-out: IC50): 34 µM
O=C(O)c1nc(N=Nc2ccc(S(=O)(=O)O)cc2)[nH]c1C(=O)O [NSC4624],65,47,
O=C(N/N=C/[C@H](O)[C@H]1OC(=O)[C@@H](O)[C@H]1O)c1ccncc1 [NSC27605],26,10,
OCC(O)C(O)C(O)C(O)c1nc2ccccc2s1 (stereo not shown) [NSC34443],86,81,IC50 ([1]; read-out: IC50): 57 µM
O=C(NNCNNC(=O)c1ccncc1)c1ccncc1 [NSC39302],7,−2,
Nc1nc2nn(-c3ccc(C(=O)NC(CCC(=O)O)C(=O)O)cc3)nc2c(=O)[nH]1 (stereo not shown) [NSC44037],15,9,
OCCNc1ncnc2c1ncn2[C@@H]1O[C@H](CO)[C@@H](O)[C@H]1O [NSC54251],4,−4,
O=C1C2C3C=CC(O3)C2C(=O)N1/N=C/C(O)C(O)C(O)C(O)CO (stereo not shown) [NSC60360],4,−4,
O=c1cc(-c2ccc(O)cc2)oc2c(O)c(O)c(O)c(O)c12 [NSC76988],,,"IC50 ([1]; IC50 (µM)): 6 µM; inhibition at 100 µM ([1]; compound 100µM, replicate experiment 1, read-out: nsp14 Inhibition % (100µM) Exp 1): 100%; inhibition at 100 µM ([1]; compound 100µM, replicate experiment 2, read-out: nsp14 Inhibition % (100µM) Exp 2): 99%; direct binding to nsp14 [2]: no direct binding was detected; anti-SARS-CoV-2 activity [3]: demonstrated anti-SARS-CoV-2 activity"
O=C1C=C(O)C(=C/C=C/C=C/c2c(O)cc(O)cc2O)C(O)=C1 [NSC77131],99,99,IC50 ([1]; read-out: IC50): 9 µM
Nc1ncnc2c1ncn2[C@H]1C[C@H](O)[C@@H](COP(=O)(O)O)O1 [NSC77680],13,7,
O=C(O)CNC(=O)C1(NC(=O)CNC(=O)OCc2ccccc2)CCCC1 [NSC80136] (Cbz-Gly-[Ac5c]-Gly-OH),13,2,
O=C(CCCCn1ccc(=O)[nH]c1=O)Nc1ccc(C(=O)O)c(O)c1 [NSC92432],6,−1,
CN(CC(O)C(O)C(O)C(O)CO)CN1C(=O)C(=O)c2ccccc21 (stereo not shown) [NSC99790],46,36,
O=S(=O)(O)c1cc(Cl)cc(N=Nc2ccc(O)cc2O)c1O [NSC102798],77,74,
OC1COC(n2cnc3c(=S)nc[nH]c32)C(O)C1O (stereo not shown) [NSC107661],18,7,
Nc1ncnc2c1ncn2C1OC(CO)C(NC(=O)C(N)Cc2ccccc2)C1O (stereo not shown) [NSC114010],11,−3,
NC(CCC(=O)NC(CSCc1ccc(F)cc1)C(=O)NCC(=O)O)C(=O)O (stereo not shown) [NSC131119],8,0,
NC(CCCNc1nc(O)c(-c2ccccc2)c(=O)[nH]1)C(=O)O (stereo not shown) [NSC132916],−1,−3,

SMILES,"nsp14 Inhibition % (100µM) Exp 1 [1, 5] [%]","nsp14 Inhibition % (100µM) Exp 2 [1, 6] [%]",further results
O=C(O)/C=C\C(=O)NCC1CCC(CNC(=O)/C=C\C(=O)O)CC1 (stereo not shown) [NSC137050],6,−1,
NS(=O)(=O)c1ccc(NC2OCC(O)C(O)C2O)cc1 (stereo not shown) [NSC158437],5,1,
Nc1ncnc2c1ncn2C1OC(C(=O)NCC(=O)O)C(O)C1O (stereo not shown) [NSC163444],9,5,
O=C(O)c1cc(=O)n(CCCCCCn2c(=O)cc(C(=O)O)[nH]c2=O)c(=O)[nH]1 [NSC232469],7,−7,
O=P(O)(O)OC[C@H]1O[C@@H](n2cnc3c(NCc4ccccc4)ncnc32)[C@H](O)[C@@H]1O [NSC255523],59,33,
CC(C)=CCNc1ncnc2c1ncn2[C@@H]1O[C@H](COP(=O)(O)O)[C@@H](O)[C@H]1O [NSC268226],9,0,
Cn1c(=O)c2c(ncn2CCCNCC(O)c2ccc(O)c(CO)c2)n(C)c1=O (stereo not shown) [NSC293892],15,3,
CC(CCc1ccc2c(c1)OCO2)NCC(O)c1ccc(O)c(C(N)=O)c1 (stereo not shown) [NSC313453],,,inhibition at 100 µM ([1]; read-out: nsp14 Inhibition % (100µM) Exp 1): 3%; inhibition at 100 µM ([1]; read-out: nsp14 Inhibition % (100µM) Exp 2): -5%
O=C(O)CCC(=O)NCC1CCCC(CNC(=O)CCC(=O)O)C1 (stereo not shown) [NSC317609],7,1,
O=P(O)(O)OC1OC(n2cnc3c(NCc4ccc(F)cc4)ncnc32)C(O)C1O (stereo not shown) [NSC330685],4,2,
O=C(O)C(Cc1ccc(O)cc1)NC(c1ccccc1)P(=O)(O)O (stereo not shown) [NSC377438],8,−3,
NC(CSCCSCCSCC(N)C(=O)O)C(=O)O (stereo not shown) [NSC400718],89,88,IC50 ([1]; read-out: IC50): 38 µM
O=S(=O)(O)c1ccc(N=Nc2c(O)ccc3n[nH]nc23)cc1 [NSC400937],73,66,
O=c1ccn(C2OC(C(O)CO)C(O)C2O)c(=O)[nH]1 (stereo not shown) [NSC613624],4,−1,
COc1cc(N=Nc2ccccc2C(=O)O)cc(/C=N/NNC(N)=S)c1O [NSC630814],84,82,
O=C1NC(=O)C(C(=O)C(=O)Nc2cccc(C(F)(F)F)c2)C(=O)N1 [NSC646375],26,20,
NC(CCCC(N)P(=O)(O)c1ccccc1)P(=O)(O)c1ccccc1 (stereo not shown) [NSC655184],7,−11,
O=C(O)c1ccc(Nc2nc3ccccc3nc2C(=O)O)cc1 [NSC670682],50,54,
N#Cc1cn([C@@H]2O[C@H](CSCC[C@H](N)C(=O)O)C(O)[C@@H]2O)c2ncnc(N)c12 (stereo partly shown) [SS148],,,IC50 [4]: 0.07 ± 0.006 µM
